# Patent US4273765A, “Amino sugar derivatives containing trehalose” (Hoffmann-La Roche Inc., priority 1978, dated 1981)
# How the values were obtained:
# [1] = tested on: Citrobacter; assay: Antimicrobial spectrum, agar-dilution method; type: cell-based
# [2] = Titration (in water); type: physicochemical
# [3] = target: T1, porcine pancreatic α-amylase (Sus scrofa, UniProt P00690); assay: Porcine pancreatic α-amylase inhibitory activity (Bernfeld assay); type: biochemical; settings: IU = amount giving 50% inhibition of 2 units porcine pancreatic α-amylase, pH 6.9, 37° C.
# T1 sequence (P00690 16-511): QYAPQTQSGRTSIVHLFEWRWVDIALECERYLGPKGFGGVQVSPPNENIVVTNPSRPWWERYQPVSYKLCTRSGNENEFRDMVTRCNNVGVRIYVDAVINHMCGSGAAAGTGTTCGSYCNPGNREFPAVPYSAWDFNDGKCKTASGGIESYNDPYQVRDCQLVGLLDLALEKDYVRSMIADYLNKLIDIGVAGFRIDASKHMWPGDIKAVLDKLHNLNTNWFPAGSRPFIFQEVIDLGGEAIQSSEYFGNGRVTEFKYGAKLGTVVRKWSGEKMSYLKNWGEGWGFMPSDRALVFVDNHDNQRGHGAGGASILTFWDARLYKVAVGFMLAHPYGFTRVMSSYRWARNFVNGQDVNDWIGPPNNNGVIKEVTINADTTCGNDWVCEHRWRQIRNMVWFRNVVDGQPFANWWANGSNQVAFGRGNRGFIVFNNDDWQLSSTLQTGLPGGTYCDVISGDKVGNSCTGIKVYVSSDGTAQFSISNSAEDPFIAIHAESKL
# Protocol: 2 units* of porcine pancreatic α-amylase in 0.1 ml of 6.4 mM ammonium sulfate solution are added to 0.6 ml of 20 mM phosphate buffer (pH 6.9) containing 10 mM sodium chloride and different amounts of Trestatin. The mixture, after equilibration at 37° C. for 5 min. followed by the addition of 0.5 ml of 4% soluble starch solution, is incubated for 5 min. at 37° C. The reaction is terminated by the addition of 2 ml of dinitrosalicylic acid reagent prepared according to the method of P. Bernfeld. The mixture is heated on a boiling water bath for 5 min. and then diluted with 10 ml of water. Absorbance (A1) of the resulting colored solution is measured at 540 nm, and the inhibition of α-amylase activity can be calculated from the following equation: [formula] A0; absorbance without enzyme A2; absorbance without Trestatin
# *1 unit of the α-amylase is the amount of enzyme which catalyzes under the above conditions without Trestatin the formation of reducing sugars equivalent to 1 μmol of maltose.
# Each of said inhibitory activities was determined by the method mentioned above.
# [4] = tested on: Staphylococcus aureus MS3937; assay: Antimicrobial spectrum, agar-dilution method; type: cell-based
# [5] = tested on: Bacillus subtilis PCI 219; assay: Antimicrobial spectrum, agar-dilution method; type: cell-based; settings: Bacillus subtilis PCI 219, agar-dilution
# [6] = tested on: hyperglycemia induced by cooked rice starch; assay: Inhibition of hyperglycemia induced by cooked rice starch, rats; type: in vivo; settings: p.o., dose causing after 20 minutes a 20 percent decrease of hyperglycemia, 2 g/kg cooked rice starch
# Protocol: (§1) **ED20 is defined as the dose causing after 20 minutes a 20 percent
# (§2) decrease of hyperglycemia induced by oral administration of 2 g/kg body
# (§3) weight cooked rice starch.
# [7] = tested on: Serratia marcescens IFO12648; assay: Antimicrobial spectrum, agar-dilution method; type: cell-based
# [8] = tested on: Sarcina lutea ATCC 9341; assay: Antimicrobial spectrum, agar-dilution method; type: cell-based; settings: Sarcina lutea ATCC 9341, agar-dilution
# [9] = tested on: E. coli CF17; assay: Antimicrobial spectrum, agar-dilution method; type: cell-based
# [10] = tested on: Pseudomonas aeruginosa P2; assay: Antimicrobial spectrum, agar-dilution method; type: cell-based
# [11] = tested on: E. coli CF41; assay: Antimicrobial spectrum, agar-dilution method; type: cell-based
# [12] = tested on: Staphylococcus aureus Smith; assay: Antimicrobial spectrum, agar-dilution method; type: cell-based
# [13] = tested on: E. coli NIHJ SMf; assay: Antimicrobial spectrum, agar-dilution method; type: cell-based
# [14] = tested on: Proteus rettgeri; assay: Antimicrobial spectrum, agar-dilution method; type: cell-based
# [15] = tested on: Klebsiella pneumoniae PCI602; assay: Antimicrobial spectrum, agar-dilution method; type: cell-based
# [16] = tested on: Bordetella bronchiseptica Aichi 202; assay: Antimicrobial spectrum, agar-dilution method; type: cell-based; settings: Bordetella bronchiseptica Aichi 202, agar-dilution
# [17] = tested on: rats; assay: Acute toxicity, oral, rats; settings: 500 mg/kg administered to rats orally (65-700 times the effective dosage)
# [18] = tested on: Proteus vulgaris OX19 ATCC6898; assay: Antimicrobial spectrum, agar-dilution method; type: cell-based
# [19] = tested on: Pseudomonas aeruginosa IFO12689; assay: Antimicrobial spectrum, agar-dilution method; type: cell-based
# [20] = tested on: E. coli K-12 ML1630; assay: Antimicrobial spectrum, agar-dilution method; type: cell-based; settings: E. coli K-12 ML1630, agar-dilution
# [21] = tested on: Staphylococcus aureus FDA209P; assay: Antimicrobial spectrum, agar-dilution method; type: cell-based
# [22] = tested on: Candida albicans Yu1200; assay: Antimicrobial spectrum, agar-dilution method; type: cell-based
# [23] = tested on: Mycobacterium smegmatis ATCC607; assay: Antimicrobial spectrum, agar-dilution method; type: cell-based
# [24] = tested on: Salmonella typhimurium IFO12529; assay: Antimicrobial spectrum, agar-dilution method; type: cell-based
# [25] = tested on: E. coli NIHJ; assay: Antimicrobial spectrum, agar-dilution method; type: cell-based
# [26] = tested on: Shigella flexneri; assay: Antimicrobial spectrum, agar-dilution method; type: cell-based
# [27] = tested on: hyperglycemia induced by cooked rice starch; assay: Inhibition of hyperglycemia induced by cooked rice starch, mice; type: in vivo; settings: p.o., dose causing after 20 minutes a 20 percent decrease of hyperglycemia, 2 g/kg cooked rice starch
# Protocol: as §1, §2, §3
# [28] = tested on: Staphylococcus aureus MS9261; assay: Antimicrobial spectrum, agar-dilution method; type: cell-based
# [29] = tested on: E. coli NIHJ STf; assay: Antimicrobial spectrum, agar-dilution method; type: cell-based
# [30] = tested on: Salmonella paratyphi B; settings: agar-dilution
# [31] = Solubility in solvents; type: physicochemical
# Source text: (h) Solubility in solvents:
# [32] = tested on: Pseudomonas aeruginosa A3; assay: Antimicrobial spectrum, agar-dilution method; type: cell-based
# [33] = tested on: hyperglycemia following an oral load of sucrose; assay: Hyperglycemia following an oral load of sucrose; type: in vivo; settings: dose/kg 30.0 mg; 20 min. after 3.2 g sucrose/kg
# Protocol: (§4) [Plasma Glucose and insulin 20 min. after carbohydrate ± Trestatin (1.
# g wheat starch/kg or 3.2 g sucrose/kg)]
# [34] = tested on: hyperglycemia (hyperinsulinemia) following an oral load of native starch; assay: Hyperglycemia (hyperinsulinemia) following an oral load of native starch; type: in vivo; settings: 20 min. after wheat starch
# Protocol: as §4
# g wheat starch/kg or 3.2 g sucrose/kg)]
compound,measurement,setting,value
C[C@H]1O[C@H](O[C@@H]2[C@H](O)[C@@H](O)[C@@H](O[C@@H]3[C@H](O)[C@@H](O)[C@@H](O[C@@H]4[C@H](O)[C@H](O)[C@@H](O[C@H]5O[C@H](CO)[C@H](O)[C@H](O)[C@H]5O)O[C@@H]4CO)O[C@@H]3CO)O[C@H]2CO)[C@@H](O)[C@@H](O)[C@@H]1N[C@@H]1C=C(CO)[C@@H](O)[C@@H](O)[C@@H]1O (stereo in doubt) [Trestatin B],Antimicrobial spectrum,[1],> 100 µg/mL
same,pKa',[2],5.0
same,Inhibitory activities,[3],1.5 × 10^6 IU/g
same,Antimicrobial spectrum,[4],> 100 µg/mL
same,Antimicrobial spectrum,[5],> 100 µg/mL
same,"ED20, inhibition of hyperglycemia induced by cooked rice starch",[6],7.7 mg/kg
same,Antimicrobial spectrum,[7],> 100 µg/mL
same,Antimicrobial spectrum,[8],> 100 µg/mL
same,Antimicrobial spectrum,[9],> 100 µg/mL
same,Antimicrobial spectrum,[10],> 100 µg/mL
same,Antimicrobial spectrum,[11],> 100 µg/mL
same,Antimicrobial spectrum,[12],> 100 µg/mL
same,Antimicrobial spectrum,[13],> 100 µg/mL
same,Antimicrobial spectrum,[14],> 100 µg/mL
same,Antimicrobial spectrum,[15],> 100 µg/mL
same,Antimicrobial spectrum,[16],> 100 µg/mL
same,Acute toxicity,[17],not observed
same,Antimicrobial spectrum,[18],> 100 µg/mL
same,Antimicrobial spectrum,[19],> 100 µg/mL
same,Antimicrobial spectrum,[20],> 100 µg/mL
same,Antimicrobial spectrum,[21],> 100 µg/mL
same,Antimicrobial spectrum,[22],> 100 µg/mL
same,Antimicrobial spectrum,[23],> 100 µg/mL
same,Antimicrobial spectrum,[24],> 100 µg/mL
same,Antimicrobial spectrum,[25],> 100 µg/mL
same,Antimicrobial spectrum,[26],> 100 µg/mL
same,"ED20, inhibition of hyperglycemia induced by cooked rice starch",[27],3.2 mg/kg
same,Antimicrobial spectrum,[28],> 100 µg/mL
same,Antimicrobial spectrum,[29],> 100 µg/mL
same,Antimicrobial spectrum,[30],> 100 µg/mL
same,Solubility in acetone,[31],slightly soluble
same,Solubility in chloroform,[31],insoluble
same,Solubility in dimethylsulfoxide,[31],soluble
same,Solubility in ethanol,[31],slightly soluble
same,Solubility in ethyl acetate,[31],insoluble
same,Solubility in water,[31],easily soluble
same,Antimicrobial spectrum,[32],> 100 µg/mL
Trestatin A dihydrochloride [Trestatin A . HCl],Inhibitory activities,[3],6.3 × 10^7 IU/g
C[C@H]1O[C@H](O[C@H]2[C@H](O)[C@@H](O)[C@@H](O[C@H]3[C@H](O)[C@@H](O)[C@@H](O[C@H]4[C@H](O)[C@@H](O)[C@@H](O[C@H]5O[C@H](CO)[C@@H](O)[C@H](O)[C@H]5O)O[C@@H]4CO)O[C@@H]3CO)O[C@@H]2CO)[C@H](O)[C@@H](O)[C@@H]1N[C@H]1C=C(CO)[C@@H](O[C@H]2O[C@H](CO)[C@@H](O[C@H]3O[C@H](C)[C@@H](NC4C=C(CO)[C@@H](O[C@H]5O[C@H](CO)[C@@H](O[C@H]6O[C@H](C)[C@@H](NC7C=C(CO)[C@@H](O)[C@H](O)[C@H]7O)[C@H](O)[C@H]6O)[C@H](O)[C@H]5O)[C@H](O)[C@H]4O)[C@H](O)[C@H]3O)[C@H](O)[C@H]2O)[C@H](O)[C@H]1O (stereo partly drawn) [Trestatin C],Antimicrobial spectrum,[1],> 100 µg/mL
same,pKa',[2],5.0
same,Inhibitory activities,[3],4.9 × 10^7 IU/g
same,Antimicrobial spectrum,[4],> 100 µg/mL
same,Antimicrobial spectrum,[5],> 100 µg/mL
same,"ED20, inhibition of hyperglycemia induced by cooked rice starch",[6],3.0 mg/kg
same,Antimicrobial spectrum,[7],> 100 µg/mL
same,Antimicrobial spectrum,[8],> 100 µg/mL
same,Antimicrobial spectrum,[9],> 100 µg/mL
same,Antimicrobial spectrum,[10],> 100 µg/mL
same,Antimicrobial spectrum,[11],> 100 µg/mL
same,Antimicrobial spectrum,[12],> 100 µg/mL
same,Antimicrobial spectrum,[13],> 100 µg/mL
same,"Plasma glucose, sucrose - load",[33],85% of carbohydrate primed controls
same,Antimicrobial spectrum,[14],> 100 µg/mL
same,Antimicrobial spectrum,[15],> 100 µg/mL
same,Antimicrobial spectrum,[16],> 100 µg/mL
same,Acute toxicity,[17],not observed
same,Antimicrobial spectrum,[18],> 100 µg/mL
same,Antimicrobial spectrum,[19],> 100 µg/mL
same,Antimicrobial spectrum,[20],> 100 µg/mL
same,Antimicrobial spectrum,[21],> 100 µg/mL
same,Antimicrobial spectrum,[22],> 100 µg/mL
same,Antimicrobial spectrum,[23],> 100 µg/mL
same,Antimicrobial spectrum,[24],> 100 µg/mL
same,"Plasma glucose, starch - load",[34]; dose/kg 0.3 mg,71% of carbohydrate primed controls
same,"Plasma insulin, starch - load",[34]; dose/kg 0.3 mg,51% of carbohydrate primed controls
same,"Plasma glucose, starch - load",[34]; dose/kg 1.0 mg,60% of carbohydrate primed controls
same,"Plasma insulin, starch - load",[34]; dose/kg 1.0 mg,51% of carbohydrate primed controls
same,"Plasma glucose, starch - load",[34]; dose/kg 3.0 mg,58% of carbohydrate primed controls
same,"Plasma insulin, starch - load",[34]; dose/kg 3.0 mg,63% of carbohydrate primed controls
same,Antimicrobial spectrum,[25],> 100 µg/mL
same,Antimicrobial spectrum,[26],> 100 µg/mL
same,"ED20, inhibition of hyperglycemia induced by cooked rice starch",[27],0.7 mg/kg
same,Antimicrobial spectrum,[28],> 100 µg/mL
same,Antimicrobial spectrum,[29],> 100 µg/mL
same,Antimicrobial spectrum,[30],> 100 µg/mL
same,Solubility in acetone,[31],slightly soluble
same,Solubility in chloroform,[31],insoluble
same,Solubility in dimethylsulfoxide,[31],soluble
same,Solubility in ethanol,[31],slightly soluble
same,Solubility in ethyl acetate,[31],insoluble
same,Solubility in water,[31],easily soluble
same,Antimicrobial spectrum,[32],> 100 µg/mL
Trestatin B monohydrochloride [Trestatin B . HCl],Inhibitory activities,[3],1.3 × 10^6 IU/g
Trestatin C trihydrochloride [Trestatin C . HCl],Inhibitory activities,[3],4.5 × 10^7 IU/g
